The text below walks through data of patent publication US7563787B2, “Substituted pyrazole compounds” (Miikana Therapeutics, Inc., priority 2005, dated 2009).

In one test the target is T1, recombinant Aurora A (Homo sapiens, UniProt O14965).
T1 construct: purchased Upstate, Lake Placid, N.Y
T1 sequence (O14965 1-403): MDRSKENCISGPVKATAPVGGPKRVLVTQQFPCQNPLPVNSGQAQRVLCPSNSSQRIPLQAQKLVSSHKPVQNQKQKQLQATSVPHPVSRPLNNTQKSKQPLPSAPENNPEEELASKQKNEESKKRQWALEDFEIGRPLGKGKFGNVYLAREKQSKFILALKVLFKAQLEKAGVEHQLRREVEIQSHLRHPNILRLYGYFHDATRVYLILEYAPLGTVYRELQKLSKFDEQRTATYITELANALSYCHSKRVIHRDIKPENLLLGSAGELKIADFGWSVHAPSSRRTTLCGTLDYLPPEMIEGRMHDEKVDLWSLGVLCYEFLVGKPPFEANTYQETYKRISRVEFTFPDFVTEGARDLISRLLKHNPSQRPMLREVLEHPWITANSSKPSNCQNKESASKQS
As to the kind of experiment: Aurora A (Aurora 2) Inhibition Assay (Z'-Lyte). In kind it is biochemical. The conditions noted are these: 100 μM compound; ATP 10 μM; 1 h. The protocol:
Compounds were tested for their potency against recombinant Aurora A (Upstate, Lake Placid, N.Y.) using the PanVera Z'-Lyte kinase assay kit-Ser/[…] peptide (Invitrogen, Carlsbad, Calif.). […] Assays were carried out in half-area 96-well white polystyrene assay plates (Corning, Corning, N.Y.) in a final volume of 20 μl. The reaction was allowed to proceed for 1 h at room temperature in the dark, at which point the development reagent and stop reagent were added according to the manufacturer's instructions. Coumarin (Ex. 400 nm, Em. 465 nm) and fluorescein (Ex. 400 nm, Em. 565 nm) fluorescence values were measured on a SpectraFluor Plus plate reader (Tecan, Durham, N.C.). The emission ratio (coumarin/fluorescein) was determined and used to calculate the percent phosphorylation for each well. […] Typically 20-40% of the substrate was phosphorylated in wells without inhibitor. Dose-response curves of relative Aurora A activity vs. inhibitor concentration were plotted with Grafit (Erithacus Software, Horley, Surrey, UK).

The target in another test is T2, Aurora B kinase (Homo sapiens, UniProt Q96GD4).
T2 construct: purchased BPS Biosciences, San Diego, Calif
T2 sequence (Q96GD4 whole entry): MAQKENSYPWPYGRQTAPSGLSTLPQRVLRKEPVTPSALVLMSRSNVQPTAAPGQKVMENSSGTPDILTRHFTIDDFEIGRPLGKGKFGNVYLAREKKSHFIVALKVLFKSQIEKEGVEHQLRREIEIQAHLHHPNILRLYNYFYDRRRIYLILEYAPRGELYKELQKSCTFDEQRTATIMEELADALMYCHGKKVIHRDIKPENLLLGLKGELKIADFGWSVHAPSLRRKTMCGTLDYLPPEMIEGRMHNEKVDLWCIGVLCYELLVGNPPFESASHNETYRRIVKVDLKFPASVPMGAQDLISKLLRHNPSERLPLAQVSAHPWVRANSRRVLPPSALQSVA
As to the kind of experiment: Aurora B (Aurora 1) Inhibition Assay. Type of test: biochemical. The conditions noted are these: 100 μM compound; ATP 50 μM; 16 h. The protocol:
Assays for Aurora B kinase inhibition were carried out similarly to those for Aurora A kinase (see above) with the following modifications. Aurora B kinase (BPS Biosciences, San Diego, Calif.) was used as the enzyme, at a concentration was 2.5 μg/mL. The ATP concentration was 50 μM, and the kinase reaction was allowed to proceed for 16 h. Sodium orthovanadate (20 μM) was added to the buffer to inhibit contaminating phosphatases.

A further test has as its system HCT-116 cell growth. Kind of test: Whole Cell Cytotoxicity Assay: Sulforhodamine B. Type of test: cell-based, Human. To be noted: Homo sapiens, HCT-116; 100 μM compound; 96 hours; SRB staining. As for the experimental part: Human tumor-derived cell lines, HCT116 or MCF7 (ATCC) were plated in a 96 well plate in DMEM containing 10% fetal bovine serum and 2 mM L-glutamine at a density of 500 HCT116 cells or 1,000 MCF7 cells per well and incubated at 37° C., 5% CO2, for 24 hours prior to the addition of experimental compounds. Compounds were added using the dilution series indicated to duplicate plates and the cells were incubated in media plus compound for 96 hours. An additional plate was fixed in 10% TCA at the time of the addition of compound to provide a measurement of the cell population at time zero, the time of drug addition. Following the 96 hour incubation, cells were fixed in situ by gently aspirating off the culture media and then adding 50 ul of ice cold 10% TCA per well and incubation at 4° C. for 60 minutes. The plates were washed with tap water five times and allowed to air dry for 5 minute. 50 ul of a 0.4% (w/v) Sulforhodamine B solution in 1% (v/v) acetic acid was added per well and the cells were incubated for 30 minutes at room temperature. Following staining, plates were washed four times with 1% acetic acid to remove any unbound dye and then allowed to air dry for 5 minutes. The stain was solubilized with 100 ul of 10 mM Tris pH 10.5 per well and placed on an orbital rotator for 5 minutes. The absorbance was read at 570 nm. Percentage growth was calculated using the absorbance readings from the time zero plate (Tz) and the dilution series plate […] which included a column of cells grown in media without compound as a control (C) using the formulas: [(Ti−Tz)/(C−Tz)]×100 for concentrations for which Ti>/=Tz [(Ti−Tz)/Tz]×100 for concentrations for which Ti<Tz.
Three dose response parameters were calculated for each experimental agent. Growth inhibition of 50% (GI50) was calculated from [(Ti−Tz)/(C−Tz)]×100=50, which was the drug concentration resulting in a 50% reduction in the net protein increase (as measured by SRB staining) in control cells during the drug incubation. The drug concentration resulting in total growth inhibition (TGI) was calculated from Ti=Tz. The LC50 (concentration of drug resulting in a 50% reduction in the measured protein at the end of the drug treatment as compared to that at the beginning) indicating a net loss of cells following treatment was calculated from [(Ti−Tz)/Tz]×100=−50. Values are calculated for each of these three parameters if the level of activity was reached; however, if the effect was not reached or was exceeded, the value for that parameter is expressed as greater or less than the maximum or minimum concentration tested.
(The SRB assay estimates cell density from bound dye.)

A word on the inhibition: it is the percentage by which the read-out fell short of the control. For `COCCNc1cc(Nc2cc(C)[nH]n2)nc(/C=C/c2ccccc2)n1` [Example 163, N^4-(2-methoxyethyl)-N^6-(5methyl-1H-pyrazol-3-yl)-2-styrylpyrimidine-4,6-diamine], the inhibition at 100 µM at recombinant Aurora A turned out to be 100%; at Aurora B kinase it was 100%; in the test on HCT-116 cell growth, 98%.

Turning to `Cc1cc(Nc2cc(NCC3CCCO3)nc(/C=C/c3ccccc3)n2)n[nH]1` (stereo not drawn) [Example 164, N^4-((tetrahydrofuran-2-yl)methyl)-N^6-(5-methyl-1H-pyrazol-3-yl)-2-styrylpyrimidine-4,6-diamine], the inhibition at 100 µM is 100% on recombinant Aurora A, 100% at Aurora B kinase and 96% in the test on HCT-116 cell growth.
